Test systems include OVCAR-4 ovarian; COLO 205 colon; RPMI-8226 leukemia; MOLT-4 leukemia; HOP-92 NSCLC; 786-0 renal; PC-3 prostate; SN12C renal; HT29 colon; SF-295 CNS.
Assay in all cases: growth of human tumour cells (NCI), 48 h

Our source for the GI50 and TGI values is PubChem BioAssay (NCI).

SMILES strings stand for the structures. “And” between values parts separate entries of the source, which are not always exact repeats. Identical values can stand only once.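 Growth conditions: 96-well plates. Treatment: test compound, 48 hours, 5 concentrations. Analysis: linear interpolation between bracketing concentrations; unreached endpoints set to highest concentration. GI50 marks 50% less growth. TGI: concentration producing complete growth inhibition.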

With `NC(=S)N/N=C1\c2ccccc2-c2c(F)c(F)c(F)c(F)c21`, the GI50 in the assay with OVCAR-4 ovarian was 1.65 µM; with COLO 205 colon, 8.01 µM; with RPMI-8226 leukemia it was 3.92 µM; in the assay with MOLT-4 leukemia it was 1.8 µM; with HOP-92 NSCLC, 6.33 µM; with 786-0 renal, 6.56 µM. For the same compound, the GI50 in the assay on PC-3 prostate is 10.1 µM; with SN12C renal, 7.31 µM; in the assay with HT29 colon it was 2.2 µM; with SF-295 CNS, 12.4 µM. Further, the TGI is 3.52 µM with OVCAR-4 ovarian; 19.6 µM with COLO 205 colon; above 55.9 µM in the assay on RPMI-8226 leukemia; 5.31 µM with MOLT-4 leukemia; 19.9 µM with HOP-92 NSCLC; 20 µM in the assay with 786-0 renal. The TGI stood at 28.3 µM in the assay with PC-3 prostate, 20 µM in the assay on SN12C renal, 5.07 µM with HT29 colon and 57.7 µM in the assay on SF-295 CNS.

Consider `Cc1ccc(C=C2C(Cl)=C(Cl)C(Cl)=C2Cl)cc1`, for which the GI50 was 1 µM with OVCAR-4 ovarian; 0.737 µM with COLO 205 colon; 0.224 µM with RPMI-8226 leukemia; 0.186 µM in the assay on MOLT-4 leukemia; 1.33 µM in the assay on HOP-92 NSCLC; 0.721 µM with 786-0 renal. For the same compound, the GI50 in the assay on PC-3 prostate was 0.743 µM; in the assay on SN12C renal, 0.832 µM; in the assay on HT29 colon it was 0.796 µM; with SF-295 CNS, 1.55 µM. In addition, the TGI amounted to 2.75 µM in the assay with OVCAR-4 ovarian; 2.09 µM with COLO 205 colon; 0.653 µM with RPMI-8226 leukemia; 0.493 µM in the assay on MOLT-4 leukemia; 4.35 µM with HOP-92 NSCLC; 1.75 µM in the assay on 786-0 renal. The TGI in the assay with PC-3 prostate was 6.3 µM; with SN12C renal, 3.02 µM; with HT29 colon, 2.89 µM; in the assay on SF-295 CNS, 3.93 µM.

As for `C=C1C(=O)O[C@H]2[C@H](OC(C)=O)[C@@H](C)CCCC3(C)OC3CCC3(CO3)[C@H](O)C[C@@H]12` (stereo partly specified), the GI50 was 3.77 µM in the assay on OVCAR-4 ovarian; 3.8 µM with COLO 205 colon; 1.38 µM with RPMI-8226 leukemia; 1.73 µM with MOLT-4 leukemia; 5.15 µM in the assay with 786-0 renal; 4.4 µM in the assay with PC-3 prostate. For the same compound, the GI50 was 10.4 µM with SN12C renal, 3.42 µM with HT29 colon and 11.4 µM with SF-295 CNS. Further, the TGI was 53.8 µM with OVCAR-4 ovarian; 65.6 µM in the assay on COLO 205 colon; 4.08 µM in the assay with RPMI-8226 leukemia; 4.14 µM in the assay with MOLT-4 leukemia; 21 µM in the assay with 786-0 renal; 18 µM in the assay with PC-3 prostate. For the same compound, the TGI is 24.8 µM with SN12C renal, above 100 µM in the assay with HT29 colon and 28.3 µM with SF-295 CNS.

For `COc1cccc(-c2cc(=O)c3cc(N4CCOCC4)ccc3[nH]2)c1`, the GI50 is 0.0353 µM in the assay on COLO 205 colon; 0.135 µM in the assay on RPMI-8226 leukemia; 0.0338 µM in the assay on MOLT-4 leukemia; 0.246 µM with HOP-92 NSCLC; 0.0602 µM in the assay on 786-0 renal; 0.0281 µM in the assay with PC-3 prostate. Moreover, the GI50 in the assay with SN12C renal is 0.0868 µM; with HT29 colon it was 0.0359 µM and 0.029 µM; in the assay on SF-295 CNS, 0.204 µM. The TGI in the assay with COLO 205 colon was 0.0463 µM and 0.234 µM; in the assay with MOLT-4 leukemia, 1.48 µM and 0.17 µM; in the assay with 786-0 renal, above 100 µM; in the assay with PC-3 prostate, above 100 µM; with SN12C renal it was above 100 µM; in the assay with HT29 colon, 0.883 µM and 0.125 µM.

For the compound `COc1ccc(/C=C2\COc3ccc(O)c(O)c3C2=O)c(OC)c1OC`, the GI50 with OVCAR-4 ovarian is 2.74 µM; with COLO 205 colon it was 2.78 µM; in the assay on RPMI-8226 leukemia, 0.457 µM; in the assay with MOLT-4 leukemia, 1.87 µM; in the assay with HOP-92 NSCLC, 2.97 µM; in the assay with 786-0 renal, 2.95 µM. For the same compound, the GI50 in the assay with PC-3 prostate is 2.35 µM; with SN12C renal it was 2.55 µM; with HT29 colon, 3.1 µM; in the assay on SF-295 CNS, 8.1 µM. Moreover, the TGI in the assay with OVCAR-4 ovarian was 17.8 µM; with COLO 205 colon, 10 µM; in the assay on RPMI-8226 leukemia, 2.95 µM; in the assay with MOLT-4 leukemia, above 100 µM; in the assay with HOP-92 NSCLC, 9.91 µM; in the assay on 786-0 renal, 10.7 µM. Moreover, the TGI was 61.8 µM with PC-3 prostate, 8.95 µM in the assay with SN12C renal, 13.8 µM in the assay with HT29 colon and above 100 µM with SF-295 CNS.

With `CN(C)CC(=O)Nc1ccc2ncnc(Nc3ccc(Oc4cccc(C(F)(F)F)c4)c(Cl)c3)c2c1`, the GI50 in the assay with OVCAR-4 ovarian is 1.96 µM; in the assay on RPMI-8226 leukemia, 1.9 µM; in the assay on MOLT-4 leukemia it was 2.14 µM; with HOP-92 NSCLC, 1.27 µM; with 786-0 renal it was 1.55 µM; in the assay on PC-3 prostate, 1.82 µM. Also, the GI50 in the assay on SN12C renal is 2.85 µM; in the assay with HT29 colon it was 1.72 µM; in the assay on SF-295 CNS it was 2.02 µM. Besides, the TGI worked out at 5.83 µM with OVCAR-4 ovarian; 5.51 µM in the assay on RPMI-8226 leukemia; 6.36 µM in the assay on MOLT-4 leukemia; 3.55 µM in the assay with HOP-92 NSCLC; 2.91 µM with 786-0 renal; 4.5 µM in the assay on PC-3 prostate. Moreover, the TGI in the assay on SN12C renal was determined as 10.5 µM; in the assay on HT29 colon, 4.08 µM; in the assay on SF-295 CNS, 4.28 µM.

With `CC1(C)N=C(N)N=C(N)N1c1ccc(OCCCNC(=O)Nc2cccc(S(=O)(=O)F)c2)c(Cl)c1`, the GI50 in the assay with OVCAR-4 ovarian is above 100 µM; in the assay with COLO 205 colon, 12.5 µM; with RPMI-8226 leukemia it was 41.4 µM; in the assay with MOLT-4 leukemia it was 3.26 µM; with HOP-92 NSCLC, 3.06 µM; in the assay with 786-0 renal it was 1.11 µM. Moreover, the GI50 is 1.23 µM with PC-3 prostate and 5.8 µM with SF-295 CNS. For the same compound, the TGI with OVCAR-4 ovarian, in the assay with COLO 205 colon, in the assay on RPMI-8226 leukemia, in the assay with MOLT-4 leukemia, in the assay on HOP-92 NSCLC and in the assay with 786-0 renal was above 100 µM throughout. Besides, the TGI with PC-3 prostate and in the assay with SF-295 CNS was above 100 µM throughout.

`CCCCCCn1c(SC)nc(COC(=O)NC)c1COC(=O)NC`: the TGI with OVCAR-4 ovarian was determined as 21.4 µM; with COLO 205 colon, 29.2 µM; in the assay on RPMI-8226 leukemia, 67.7 µM; with MOLT-4 leukemia, 53.8 µM; in the assay with 786-0 renal, 30.3 µM; with PC-3 prostate it was 31.8 µM. For the same compound, the figures for the TGI in the assay with SN12C renal, with HT29 colon and in the assay on SF-295 CNS were 31.3 µM, 36.2 µM and 35.1 µM, respectively.
